Data: US8377886B2, “Use of gamma secretase inhibitors and notch pathway inhibitors for treatment and prevention of renal disease” (Albert Einstein College of Medicine of Yeshiva University, priority 2007, dated 2013)

Experiments:
[1] = tested on: podocytes; test: TGFβ induced podocyte apoptosis, annexinV positive cell number; assay type: cell-based, mouse; details: 24 hrs following TGFβ; pre-incubation GSIXX 1 μM or pifithrinα 15 μM
Procedure: (§1) Infection of Podocytes. Cultivation of conditionally immortalized mouse podocytes was performed as described^41. Briefly, cells were propagated in the undifferentiated state on type1 collagen at 33° C. in RPMI 1640 in the presence of 10% FBS (Hyclone) and 20 U/ml interferon γ (Sigma Chemical Co., St Louis, Mo.). To induce differentiation, cells were maintained at 37° C. without interferon for 10 days. Podocytes were infected with MIGR-ICN1-EGFP (kind gift of Dr Warren Pear, University of Pennsylvania) or pBMN-EGFP (Orbigen) retrovirus. Briefly vectors were transfected into Phoenix Eco packaging cells (Orbigen) and supernatant was harvested 60-72 hrs after transfection. Podocytes were infected with virus containing supernatant (3-4 times, every 6 hours) in the presence of polybrene […]. After 24 hrs of infection, the medium was changed and cells were either treated with tamoxifen to induce ICN1 expression or left untreated. Infection efficiency was estimated under fluorescence microscope by the presence of GFP positive cells as it ranged from 70-80%.
AnnexinV staining. AnnexinV staining was performed using AnnexinV-Alexa 568 staining kit (Roche). […] Cells were washed, and fluorescent labeled cells were counted. Total number of cells were counted by DAPI counterstain. Nuclear condensation was assessed by DAPI staining.

[2] = tested on: unilateral ureteral obstruction model; test: Unilateral ureteral obstruction model of renal tubulointerstitial fibrosis; assay type: in vivo, mouse; details: animals injected with GSI XX (DBZ)
Procedure: Increased Notch pathway gene expression was also observed in mouse models of chronic tubulointerstitial fibrosis (unilateral ureteral obstruction) and in patients with chronic renal disease and tubulointerstitial fibrosis. […] The role and regulation of Notch pathway genes were also examined in other models of tubulointerstitial fibrosis. […] To examine the role of Notch activation in this model, animals were injected with GSI XX (DBZ). DBZ reduced the expression of Notch target gene HeyL and reduced expression of pro-fibrotic genes collagen, fibronectin and alpha smooth muscle action.

[3] = tested on: podocytes; test: ICN1 induced podocyte apoptosis, AnnexinV staining; assay type: cell-based, mouse; details: for ICN1 induced increase in annexinV positive cell number: tamoxifen 1.5 μM, counted 24 hrs after induction, GSIXX 4 μM, pifithrin-alpha 15 μM
Procedure: as §1
AnnexinV staining. AnnexinV staining was performed using AnnexinV-Alexa 568 staining kit (Roche). Cells were cultured in 24 well plates, washed and incubated with AnnexinV-Alexa 568 in incubation buffer according to manufacturer's instruction. Cells were washed, and fluorescent labeled cells were counted. Total number of cells were counted by DAPI counterstain. Nuclear condensation was assessed by DAPI staining.

[4] = tested on: Balb/c mice; test: Adriamycin (doxorubicin) induced nephrotic syndrome of mice; assay type: in vivo, mouse; details: male Balb/c mice, 12 days following 12 mg/kg doxorubicin (adriamycin); doxorubicin only 2659 μg/mg creatinine
Procedure: Adriamycin-induced nephrotic syndrome was induced in 8 weeks old male Balb/c mice (n=10/per each groups) via intravenous injection (to the tail vein) of 12 mg/kg adriamycin. Animals were sacrificed 12 days following the injection. All animal studies were approved by the Animal Care Committee at the Albert Einstein College of Medicine (AECOM). Animals were maintained under specific pathogen free conditions. Phenotypic analysis. Albuminuria was determined using Mouse or Rat Albumin specific ELISA kits (Exocell and Bethyl Laboratories) and urine creatinine was determined using Creatinine companion (Exocell), following manufacturer's protocol.

[5] = tested on: PAN treated rats; test: PAN induced nephrotic syndrome in rats; assay type: in vivo, rat
Procedure: Male Sprague Dawley rats (75-100 gr˜4 weeks old) were purchased from Charles Rivers. Animals were injected with puromycin aminonucleoside 20 mg/kg ip ×1. BDZ (dissolved in Methocell, Tween-80) was administered ip 500 μg/100 gr rat once a day. Animals were sacrificed on day 8 after PAN administration.
Phenotypic analysis. Albuminuria was determined using Mouse or Rat Albumin specific ELISA kits (Exocell and Bethyl Laboratories) and urine creatinine was determined using Creatinine companion (Exocell), following manufacturer's protocol.
Histologic analysis. Histologic analysis was performed on formalin fixed paraffin embedded kidney sections that was stained with Periodic-Acid-Schiff (PAS) or Gomori Trichrome. Slides were examined and pictures were taken with Nikon Eclipse TE300 microscope and SPOT Diagnostic CCD camera. Transmission electron microscopy was performed in the Analytical Imaging Facility at AECOM on glutaraldehyde fixed, epoxy embedded kidney samples stained with uranyl acetate and lead citrate. Samples were evaluated using JEOL 1200EX, electron microscope (AECOM, Analytical Imaging Facility).
Immunohistochemistry. Immunohistochemistry was performed on formalin fixed paraffin embedded kidney sections using the following primary antibodies Val^1744ICN1 (Abcam), ICN2 (Abeam). Staining was visualized using peroxidase conjugated anti mouse of anti rabbit Vectastain Elite kit and DAB (Vector Labs). Terminal d-UTP labeling (TUNEL) staining was performed using TUNEL kit (Chemicon) following manufacturer's instructions. For fluorescent labeling, 5 μm frozen sections were fixed in ice cold acetone, blocked with 10% horse serum and incubated with primary antibodies, WT-1 (Santa Cruz), nephrin (kind gift of Dr Lawrence Holzman, University of Michigan), synaptopodin and podocin (Sigma-Aldrich), p21 (Santa Cruz), and developed using FITC conjugated anti-mouse secondary antibody or Cy3 conjugated anti-rabbit antibodies (Jackson laboratory) and mounted with Fluoromount).
Glomerular isolation. Glomerular isolation was performed using serial sieving of 120, 100 and 71 μm diameter.
QRT-PCR. RNA was prepared from isolated glomeruli or from podocytes using RNAeasy Mini kit (Qiagen, Valencia). The quality was analyzed on agarose gels and the quantity was measured on NanoDrop. 1 ug RNA was reverse transcribed using cDNA Archival Kit (Applied Biosystems). QRT-PCR analysis was performed using ABI 7900HT-Sequence Detection System. SYBR Green Master Mix and 3-step standard cycling conditions and sequence specific primers for QRT-PCR analysis were used. Melting curve was examined to verify that a single product was amplified. For quantitative analysis all samples were normalized to ubiquitin C and HPGRT gene expression using the ΔΔCT value method.
It was examined whether the Notch pathway inhibition (with the use of a gamma-secretase inhibitor) could be used as a potential strategy for the treatment of albuminuric glomerular disease^31. Rats we treated with DBZ 500 μg/100 gr ip. daily stating 12 hrs prior to PAN injection. Animals were sacrificed on day 8 as the PAN treated rats appeared moribund and most of them had severe nephrotic syndrome (ascites and edema). DBZ treatment normalized the Notch pathway gene expression increase of PAN treated rats (FIG. 1e, FIG. 12a). […] Similarly, expression of p53 and p21 was lower in BDZ treated rats compared to PAN only injected animals (FIG. 110.

[6] = tested on: FA-treated mice; test: Murine folic acid (FA)-induced nephrotoxicity model; assay type: in vivo, mouse; details: FA mice treated for 1 week with DBZ
Procedure: Experiments were conducted using the murine folic acid (FA)-induced nephrotoxicity model, which is characterized by acute tubular injury followed by both tubular regeneration and chronic changes such as patchy interstitial fibrosis. Strong upregulation was found for mRNA levels of Notch 1-4, the ligands Jagged 1 and 2, delta like-1 and -4, and the downstream target genes Hes1, Hey1, and HeyL in total kidney homogenates 1 day after FA injection, which remained increased up to 1 week.
To further investigate the role of Notch in FA-induced renal injury, mice were treated for 1 week with the gamma-secretase inhibitor (GSI) dibenzazepine (DBZ) that blocks activation of the Notch pathway by interfering with Notch cleavage. […] In control kidneys, large numbers of interstitial fibroblasts and significant tubulointerstitial fibrosis were observed indicating a misdirected renal regeneration.

[7] = tested on: p53; test: TGFβ induced phosphorylated p53 levels in podocytes, Western blot; assay type: cell-based, mouse; details: after 4 hrs of incubation with TGFβ
Procedure: as §1
(§2) Western Blotting. Cells were lysed in RIPA buffer in the presence of protease and phosphatase inhibitors; equal amount (30 μg) of protein was loaded on 10% SDS gels. Gels were transferred to PVDF membranes (Bio-Rad), blocked in 5% milk and incubated with the primary antibody (1:1,000 dilution) overnight at 4° C. in 1% milk. […]

[8] = tested on: Smad3 and Akt phosphorylation; test: TGFβ induced Smad3 and Akt phosphorylation in podocytes, Western blot; assay type: cell-based, mouse; details: 5 ng/ml TGFβ; GSI XX 1 μM
Procedure: as §1, §2

[9] = tested on: ICN1; test: TGFβ induced increase of ICN1 levels in cultured podocytes, Western blot; assay type: cell-based, mouse; details: 5 ng/ml TGFβ; 100 nM GSI XX; 10 μM SB203580, PD or LY; GSI IX and GSI X data not shown
Procedure: as §1
Western Blotting. Cells were lysed in RIPA buffer in the presence of protease and phosphatase inhibitors; equal amount (30 μg) of protein was loaded on 10% SDS gels. Gels were transferred to PVDF membranes (Bio-Rad), blocked in 5% milk and incubated with the primary antibody (1:1,000 dilution) overnight at 4° C. in 1% milk. Membranes were incubated with HRP conjugated anti-mouse or anti-rabbit secondary antibody (Jackson Immunologicals) for 1 hr at room temperature and developed using ECL method (Pierce). The following primary antibodies were used in this study; phospho-p38 (#4631), total p38 (#9217), phospho-AKT (#4051), total AKT (#9272), cleaved PARP, cleaved caspase3, phospho-53 were from Cell Signaling, phospho-JNK, p53, p21 were from Santa Cruz Val^1744ICN1 and β-actin antibody was purchased from Abcam (Cambridge, Mass.).

[10] = tested on: p21; test: TGFβ induced p21 protein expression in podocytes, Western blot; assay type: cell-based, mouse; details: after 24 hrs TGFβ
Procedure: as §1, §2

[11] = PAN rats, DBZ 500 μg/100 gr ip daily

## C[C@H](NC(=O)Cc1cc(F)cc(F)c1)C(=O)N[C@@H]1C(=O)N(C)c2ccccc2-c2ccccc21 [DBZ, (S,S)-2-[2-(3,5-Difluorophenyl)acetylamino]-N-(5-methyl-6-oxo-6,7-dihydro-5H-dibenzo[b,d]azepin-7-yl)propionamide]
[1]
  TGFβ induced increase in annexinV positive cell number: prevented
[2]
  expression of Notch target gene HeyL: reduced
  expression of pro-fibrotic genes collagen, fibronectin and alpha smooth muscle action: reduced
  tubulointerstitial fibrosis (evaluated on PAS staining): reduced
[3]; listed as GSI XX
  ICN1 induced increase in annexinV positive cell number: did not alter
[3]; listed as GSIXX
  ICN1 induced increase in annexinV positive cell number: did not affect
[4]
  albuminuria: 800 μg/mg creatinine
[5]; DBZ 500 μg/100 gr ip daily from 12 hrs prior to PAN, QRT-PCR
  Notch pathway gene expression increase of PAN treated rats: normalized
[5]; PAN rats, 500 μg/100 gr ip daily, compared to PAN only, after 6 days
  albuminuria (albumin/creatinine ratio): significantly less
[5]; [11]
  foot process effacement (EM analysis): almost fully abrogated
  podocyte apoptosis (TUNEL staining): fully prevented
[5]; PAN rats, DBZ 500 μg/100 gr ip daily, day 8
  decrease in nephrin and podocin levels (mRNA and protein): protected
[5]; PAN rats, whole kidney lysates QRT-PCR, compared to PAN only
  expression of p53 and p21: lower
[6]
  FA-induced upregulation of fibrotic remodeling genes (TGF-β, fibronectin, MMP-2 and 9): greatly reduced
  increase in serum creatinine: did not affect
  rate of tubular apoptosis: did not affect
  rise in HeyL expression: completely blunted
  tubular damage scores: did not affect
[7]
  TGFβ induced increase of phosphorylated p53 levels: fully sensitive
[8]
  TGFβ induced Smad3 and Akt phosphorylation: did not interfere
[9]
  TGFβ induced increase of ICN1 levels: fully sensitive

## C[C@H](NC(=O)Cc1cc(F)cc(F)c1)C(=O)N[C@H](C(=O)OC(C)(C)C)c1ccccc1 [GSI IX, N—[N-(3,5-Difluorophenacetyl-L-alanyl)]-S-phenylglycine t-Butyl Ester]
[9]
  TGFβ induced increase of ICN1 levels: fully sensitive

## CC(C)C[C@H](NC(=O)[C@H](Cc1ccccc1)C[C@@H](O)[C@H](Cc1ccccc1)NC(=O)OC(C)(C)C)C(=O)N[C@@H](Cc1ccccc1)C(N)=O [GSI X, {1S-Benzyl-4R-[1-(1S-carbamoyl-2-phenethylcarbamoyl)-1S-3-methylbutylcarbamoyl]-2R-hydroxy-5-phenylpentyl}carbamic Acid tert-butyl Ester]
[9]
  TGFβ induced increase of ICN1 levels: fully sensitive

## COc1cccc(-c2cc(=O)c3ccccc3o2)c1N [PD98059]
[9]
  TGFβ induced increase of ICN1 levels: not sensitive

## C[S+]([O-])c1ccc(-c2nc(-c3ccncc3)c(-c3ccc(F)cc3)[nH]2)cc1 (stereo not drawn) [SB203580]
[3]
  ICN1 induced increase in annexinV positive cell number: did not alter
[9]
  TGFβ induced increase of ICN1 levels: not sensitive

## Cc1ccc(C(=O)Cn2c3c(sc2=N)CCCC3)cc1 [pifithrin alpha]
[1]
  TGFβ induced increase in annexinV positive cell number: prevented
[3]
  ICN1 induced increase in annexinV positive cell number: decreased
[10]
  TGFβ induced increase in p21 protein expression: blocked

## Z-vad
[3]; podocytes with tamoxifen-induced ICN1, pretreatment with Z-vad (10 μM) or Z-LEHD (10 μM)
  ICN1 induced apoptosis (AnnexinV/GFP positive cells): prevented
